Laboratory results as given in US20200255411A1, “ISOINDOLINE DERIVATIVES” (VIIV HEALTHCARE UK LIMITED, priority 2015, published 2020).

System: HIV in the HTLV-1 transformed cell line MT-4
Experiment: MT4 assay (antiviral HIV activity)
Assay type: cell-based
Settings: MT-4 cells, readout at 96 hours with cell titer glo, 10 point dose response
Description: Antiviral HIV activity and cytotoxicity values for compounds of the invention from Table 1 were measured in parallel in the HTLV-1 transformed cell line MT-4 based on the method previously described (Hazen et al., 2007, In vitro antiviral activity of the novel, tyrosyl-based human immunodeficiency virus (HIV) type 1 protease inhibitor brecanavir (GW640385) in combination with other antiretrovirals and against a panel of protease inhibitor-resistant HIV (Hazen et al., “In vitro antiviral activity of the novel, tyrosyl-based human immunodeficiency virus (HIV) type 1 protease inhibitor brecanavir (GW640385) in combination with other antiretrovirals and against a panel of protease inhibitor-resistant HIV”, Antimicrob. Agents Chemother. 2007, 51: 3147-3154; and Pauwels et al., “Sensitive and rapid assay on MT-4 cells for the detection of antiviral compounds against the AIDS virus”, J. of Virological Methods 1987, 16: 171-185).
Luciferase activity was measured 96 hours later by adding a cell titer glo (Promega, Madison, Wis.). Percent inhibition of cell protection data was plotted relative to no compound control. Under the same condition, cytotoxicity of the compounds was determined using cell titer Glo™ (Promega, Madison, Wis.). IC50s were determined from a 10 point dose response curve using 3-4-fold serial dilution for each compound, which spans a concentration range >1000 fold. […]

Cc1c(-c2c(C)c3c(c(C)c2[C@H](OC(C)(C)C)C(=O)O)CN(C(=O)c2cccc(F)c2)[C@@H]3C)cc(F)c2c1CCCO2 (atropisomer, axis not shown; (M)) [Example 1]
IC50: 1.7 nM
